Measurements taken from patent publication US20230272077A1, “PD-1 SIGNAL INHIBITOR COMBINATION THERAPY” (KYOTO UNIVERSITY, priority 2015, published 2023).
Entries after “also recorded” stand apart in the source; their conditions may differ.

Columns and labels:
MC38 = assay: Mouse therapy model, MC38-bearing mice (tumor volume, survival); type: in vivo; conditions: MC38-bearing mice; for animal survival, triple combination of mTOR activator, AMPK activator and PD-L1 antibody / antitumor effect of triple combination of mTOR activator, AMPK activator and PD-L1 antibody: both activators with PD-L1 antibody; for enhancement of antitumor effect of PD-L1 antibody (tumor volume) / survival rate: reagent combined with PD-L1 antibody vs PD-L1 antibody alone; for antitumor effect when administered alone: reagent alone, no PD-L1 antibody, tumor volume
Procedure: (§1) MC38 (5×10^5) and MethA (5×10^5) cells were intradermally injected on the right flank. MC38 was inoculated into C57BL/6 mice and MethA was inoculated into BALB/c mice. For monotherapy, mice were intraperitoneally injected with 150 μg of PD-L1 mouse antibody (1-111A) (prepared by the laboratory of the present inventors) 5 days after the tumor inoculation. Therapy with PD-L1 antibody alone was repeated three times every 5 days. For combination therapy, administration of PD-L1 antibody and chemical agents started 7 days after tumor injection. Chemical agents were injected at a regular interval of 2 days and PD-L1 antibody at a regular interval of 5 days (shown in FIG. 3b). Tumors were measured on every alternate day, and tumor volumes were calculated using the formula for typical ellipsoid, π×(length×breadth×height/6).
(§2) The following chemical reagents were used at the indicated concentrations for combination therapy. AMPK activator: A769662, 6 mg/kg (Abcam); mTOR activator: MHY1485, 3 μg/kg (Sigma-Aldrich); uncoupler: carbonylcyanide-p-trifluoromethoxyphenylhydrazone (FCCP), 1.2 mg/kg (Abcam); uncoupler: 2,4-Dinitrophenol (DNP), 1.7 mg/kg (Aldrich); SIRT1 activator: resveratrol, 0.5 mg/kg (Abcam); ROS scavenger: Mn (III) tetrakis (4-benzoic acid) porphyrin (MnTBAP), 1.25 mg/kg (Calbiochem); ROS generator: tert-butyl hydroperoxide solution (Luperox TBH70X), 200 μL/kg (Sigma-Aldrich); ATP synthase inhibitor: oligomycin, 250 μg/kg (Sigma-Aldrich); paraquat 2 mg/kg (Nakalai Tesque); oltipraz 1.9 mg/kg (Sigma); bezafibrate 1 mg/kg (ChemCruz).
All reagents were freshly prepared just before use. Each reagent was dissolved in the solvent indicated in the instructions. Note that the AMPK activator, mTOR activator, uncouplers and SIRT1 activator were prepared from fresh unused vials in each series of experiments. Dissolved reagents were diluted in PBS, and a 200 l aliquot was injected per mouse.
Murine colon adenocarcinoma MC38 cells (5×10^5) were inoculated into C57BL/6 mice. After 7 days, anti-PD-L1 antibody (1-111A, 150 μg) and AMPK inhibitor (Compound C: 200 μg in BBS, 200 μL) were administered intraperitoneally. Anti-PD-L1 antibody was administered 3 times at a regular interval of 6 days; Compound C (C.C) was administered 7 times at a regular interval 2 days.
MC38 cells (5×10^5) were inoculated into C57BL/6 mice. After 7 days, anti-PD-L1 antibody (1-111A, 150 μg) and PGC-1α/transcription factor complex activator (2-(4-{2-[(4-chlorobenzoyl)amino]ethyl}phenoxy)-2-methylpropanoic acid (bezafibrate): 10 ug in PBS, 200 ul) were administered intraperitoneally. Anti-PD-L1 antibody was administered 3 times at a regular interval of 6 days; bezafibrate was administered 7 times at a regular interval 2 days.

PGC-1α = PGC-1α expression (Western blotting, real-time RT-PCR); type: in vivo, mouse; conditions: combination therapy together with PD-L1 antibody
Procedure: RNA was isolated from CD8^+ T cells or tumor cells with the RNeasy Mini Kit (Qiagen), followed by cDNA synthesis by reverse transcription. Real-time PCR for PGC-1α was performed using the following primers: Forward […] (SEQ ID NO: 1) and Reverse […] (SEQ ID NO: 2). To analyze the expression levels of genes associated with apoptosis and mitochondrial energy metabolism, RT2 Profiler PCR Array Gene Expression Kit PAMM-012Z or PAMM-008Z (Qiagen) was used. The list of genes included in this assay can be found in www.sabiosciences.com/Apoptosis.php.
CD8^+ T cells were isolated using mouse CD8 Microbeads (Miltenyi Biotec). After washing with PBS twice, 2×10^6 cells were solubilized in a lysis buffer containing 30 mM Tris-HCl (pH.7.4), 150 mM NaCl, 10% glycerol, 0.1% SDS, 1% Triton-X-100, 0.05% Na-Doc, 5 mM EDTA (pH.8.0), protease inhibitor mixture (Roche Molecular Biochemicals) and phosphatase inhibitors (Nacalai Tesque). After measurement of protein concentrations by DC protein assay (Bio-Rad), 4 μg of proteins was mounted on 4 to 20% gradient Mini-PROTEAN TGX Gels (Bio-Rad) and electroblotted onto nitrocellulose membranes, which were then incubated in a blocking buffer of TBS containing 1% BSA. Primary antibody incubations were carried out overnight at 4° C. in blocking buffer. After washing, secondary antibody incubations were carried out at room temperature for 40 min in blocking buffer. Blots were developed with enhanced chemiluminescence (Amersham Pharmacia). Primary antibodies recognizing the following proteins were used: Phospho-mTOR (P-mTOR) (Cat #5536), Phospho-AMPKa (P-AMPK) (#2535), Phospho-p70 S6 Kinase (P-S6K) (#9205), 4E-BP1 (#9644), Phospho-Acetyl-CoA Carboxylase (P-ACC) (#3661) and SIRT1 (#9475). All the primary antibodies were obtained from Cell Signaling Technology. An antibody recognizing PGC-1α (SC-13067) was obtained from Santa Cruz.

MethA = assay: Mouse therapy model, MethA-transplanted BALB/c mice (tumor volume); type: in vivo; conditions: MethA in BALB/c mice, combined with PD-L1 antibody
Procedure: as §1, §2
MethA cells (5×10^5) were inoculated into BALB/c mice. After 7 days, anti-PD-L1 antibody (1-111A, 80 μg) and Foxo1 inhibitor (5-amino-7-(cyclohexylamino)-1-ethyl-6-fluoro-4-oxo-1,4-dihydroquinoline-3-carboxylic acid, Calbiochem) (2 mg/kg) were administered intraperitoneally.
Fibrosarcoma MethA (Cell Resource Center for Biomedical Research) cells (5×10^5) were inoculated into BALB/c mice. After 7 days, anti-PD-L1 antibody (1-111A, 60 μg) and Aminoleban (Otsuka Pharmaceutical, 400 μl/mouse) were administered.

tumor cells = assay: Phenotypic and transcription profile analysis of tumor cells from mice treated with reagent alone; parameters: species or system mouse; conditions: tumor cells from mice treated with reagent alone in vivo
Description: FIG. 12. […] After enzymatic digestion, tumor cells were sorted with a cell isolation kit capable of excluding non-tumor cells. The isolated tumor cells were further purified with Aria and used in the following experiments. b) Tumor cells were stained with antibodies targeting PD-L1, MHC class I, CD155 (ligand of TIGIT), and VISTA or with dyes for mitochondrial mass, membrane potential, and superoxide. c) Expression levels of genes associated with mitochondrial energy metabolism and apoptosis were examined using RT^2 profiler PCR Kit.
For analyzing draining lymph nodes, cells from axillary, brachial, and inguinal lymph nodes on the right side of tumor-inoculated mice were harvested and mixed. Averaged cell numbers per one lymph node were used as absolute cell numbers. For tumor analysis, tumor tissues were minced into 2- to 3-mm pieces with scissors and digested with collagenase type IV (Thermo Fisher Scientific) using a gentle MACS Dissociator (Miltenyi Biotec). The numbers of tumor cells per mg were used as absolute numbers. Tumor cells were isolated from digested tumor tissues using a Tumor Cell Isolation Kit, mouse (Miltenyi Biotec). This kit purifies tumor cells by excluding lymphocytes, red blood cells, fibroblasts, endothelial cells and tumor-associated stromal cells. The resultant tumor cell population was further isolated/purified with FACS Aria (BD Biosciences). […]

O=[N+]([O-])c1ccc(Nc2nc(N3CCOCC3)nc(N3CCOCC3)n2)cc1 [mTOR activator, 4,6-Di-4-morpholinyl-N-(4-nitrophenyl)-1,3,5-triazin-2-amine]
animal survival, triple combination of mTOR activator, AMPK activator and PD-L1 antibody (MC38): improved animal survival | antitumor effect of triple combination of mTOR activator, AMPK activator and PD-L1 antibody (MC38): further enhanced the effect of PD-L1 antibody | enhancement of antitumor effect of PD-L1 antibody (tumor volume) (MC38): moderately augmented the efficacy of PD-1 blockade therapy in the early phase | expression levels of PGC-1α protein and mRNA (PGC-1α): increased

CCn1cc(C(=O)O)c(=O)c2c(N)c(F)c(NC3CCCCC3)cc21 [Foxo1 inhibitor, 5-amino-7-(cyclohexylamino)-1-ethyl-6-fluoro-4-oxo-1,4-dihydroquinoline-3-carboxylic acid]
enhancement of antitumor effect of PD-L1 antibody (tumor volume) (MethA): enhances the efficacy of anti-PD-L1 antibody therapy | enhancement of antitumor effect of PD-L1 antibody (tumor volume) (MethA; listed as AS1842856): Synergistic effect

C[n+]1ccc(-c2cc[n+](C)cc2)cc1.[Cl-].[Cl-] [paraquat, 1,1′-dimethyl-4,4′-bipyridinium dichloride]
enhancement of antitumor effect of PD-L1 antibody (tumor volume) (MC38): enhanced the effect for PD-1 blockade | enhancement of antitumor effect of PD-L1 antibody (tumor volume) (MethA): enhanced the antitumor effect of PD-L1 antibody

O=C(O)c1ccc(-c2c3nc(c(-c4ccc(C(=O)O)cc4)c4ccc([n-]4)c(-c4ccc(C(=O)O)cc4)c4nc(c(-c5ccc(C(=O)O)cc5)c5ccc2[n-]5)C=C4)C=C3)cc1.[Mn+3] [MnTBAP, Mn (III) tetrakis (4-benzoic acid) porphyrin]
effect of ROS scavenger on combination therapy using PD-L1 antibody and uncouplers (MC38; added to PD-L1 antibody + FCCP or DNP): inhibited

N#Cc1c(O)c2c(-c3ccc(-c4ccccc4O)cc3)csc2[nH]c1=O [AMPK activator, 6,7-dihydro-4-hydroxy-3-(2′-hydroxy[1,1′-biphenyl]-4-yl)-6-oxo-thieno[2,3-b]pyridine-5-carbonitrile]
animal survival, triple combination of mTOR activator, AMPK activator and PD-L1 antibody (MC38): improved animal survival | antitumor effect of triple combination of mTOR activator, AMPK activator and PD-L1 antibody (MC38): further enhanced the effect of PD-L1 antibody | enhancement of antitumor effect of PD-L1 antibody (tumor volume) (MC38): moderately augmented the efficacy of PD-1 blockade therapy in the early phase | expression levels of PGC-1α protein and mRNA (PGC-1α): increased

CC(C)(C)OO [Luperox, tert-butyl hydroperoxide]
antitumor activity of triple combination of PD-L1 antibody, DNP and Luperox (MC38; DNP and Luperox both with PD-L1 antibody): stronger antitumor activity; also recorded: Antitumor effect is enhanced | antitumor effect when administered alone (MC38): no antitumor activity was observed | enhancement of antitumor effect of PD-L1 antibody (tumor volume) (MC38): remarkably enhanced the antitumor effect; also recorded: Synergistic effect | survival rate (MC38): improved the survival rate | changes in immune-regulatory surface markers and transcriptional profiles of tumor cells (tumor cells): no significant changes; also recorded: little effect on tumor cells in vivo

Oc1ccc(/C=C/c2cc(O)cc(O)c2)cc1 [Resveratrol, trans-3,5,4′-trihydroxystilbene]
antitumor effect when administered alone (MC38): no tumor growth inhibitory effect was observed | enhancement of antitumor effect of PD-L1 antibody (tumor volume) (MC38): remarkably reduced tumor sizes; also recorded: remarkable tumor inhibitory effect | survival rate (MC38): improved the survival rate
